Assay results taken from the supplement of paper PMC8617591.

Key:
[1] = test system: Mycobacterium tuberculosis Erdman (autoluminescent); assay: GRinf, maximum normalised growth rate inhibition (three-drug combination) (unitless (-1 to 1)); higher = less effect (negative = killing)
Experimental: (§1)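 DiaMOND equipotent three-drug combination dose responses (10 doses, 1.5- or 2-fold spacing, centred on IC90) against autoluminescent M. tuberculosis Erdman in 8 in vitro models. Read-out is OD600, or luminescence for the intracellular and dormancy models, normalised to untreated wells. Hill-fit Einf, AUC25 and GRinf are potency metrics; FIC50 and FIC90 are total Loewe fractional inhibitory concentrations as log2 (negative = synergy).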

[2] = test system: Mycobacterium tuberculosis Erdman (autoluminescent); assay: total FIC50 (Loewe) at 50% inhibition, three-drug combination (log2); higher = more antagonistic
Experimental: as §1

[3] = test system: Mycobacterium tuberculosis Erdman (autoluminescent); assay: Einf, fitted maximum growth inhibition of three-drug combination (fraction); higher = stronger maximal inhibition
Experimental: as §1

[4] = test system: Mycobacterium tuberculosis Erdman (autoluminescent); assay: AUC25, normalised area under dose response up to IC25 (three-drug combination) (fraction (0-1)); higher = more potent at low dose
Experimental: as §1

[5] = test system: Mycobacterium tuberculosis Erdman (autoluminescent); assay: total FIC90 (Loewe) at 90% inhibition, three-drug combination (log2); higher = more antagonistic
Experimental: as §1

COc1nc2ccc(Br)cc2cc1[C@@H](c1ccccc1)[C@@](O)(CCN(C)C)c1cccc2ccccc12 [bedaquiline] + NNC(=O)c1ccncc1 [isoniazid] + CC(=O)NC[C@H]1CN(c2ccc(N3CCOCC3)c(F)c2)C(=O)O1 [linezolid]
Settings | AUC25, [4] | Einf, [3] | GRinf, [1] | total FIC50, [2] | total FIC90, [5]
in vitro model: acidic pH 5.7, time point: constant (~7 days, model-specific) | 0.106 | 0.912 | -0.504 | 0.42 | –
in vitro model: acidic pH 5.7, time point: terminal (~4-5 doublings, model-specific) | 0.099 | 0.977 | -0.207 | 0.426 | 0.522
in vitro model: intracellular J774, time point: constant = terminal | – | 0.898 | -0.0256 | – | 0.82

Settings | AUC25, [4] | Einf, [3] | GRinf, [1] | total FIC50, [2] | total FIC90, [5]
in vitro model: butyrate, time point: constant (~7 days, model-specific) | 0.0832 | 0.917 | -0.00837 | 0.739 | 1.08
in vitro model: butyrate, time point: terminal (~4-5 doublings, model-specific) | 0.0647 | 0.962 | -0.0285 | 0.794 | 0.944
in vitro model: cholesterol 0.05 mM, time point: constant (~7 days, model-specific) | 0.139 | 0.735 | -0.291 | 0.27 | –
in vitro model: cholesterol 0.05 mM, time point: terminal (~4-5 doublings, model-specific) | 0.147 | 0.945 | -0.463 | 4.34 | 0.413
in vitro model: cholesterol-high 0.2 mM, time point: constant (~7 days, model-specific) | 0.114 | 0.955 | -0.63 | 0.506 | 1.92
in vitro model: cholesterol-high 0.2 mM, time point: terminal (~4-5 doublings, model-specific) | 0.0961 | 1 | -0.702 | 0.549 | 0.793
in vitro model: dormancy (butyrate + nitrate, low O2), time point: constant (~7 days, model-specific) | 0.0688 | 0.93 | 0.215 | 0.921 | 0.532
in vitro model: dormancy (butyrate + nitrate, low O2), time point: terminal (~4-5 doublings, model-specific) | 0.0346 | 0.989 | -0.127 | 0.777 | 0.255
in vitro model: standard 7H9 glycerol, time point: constant = terminal | 0.0715 | 0.957 | -0.0711 | 0.0514 | -0.28
in vitro model: valerate, time point: constant (~7 days, model-specific) | 0.107 | 0.928 | -0.345 | 0.58 | 0.911
in vitro model: valerate, time point: terminal (~4-5 doublings, model-specific) | 0.0588 | 0.959 | -0.111 | 0.894 | 0.84

COc1nc2ccc(Br)cc2cc1[C@@H](c1ccccc1)[C@@](O)(CCN(C)C)c1cccc2ccccc12 [bedaquiline] + NNC(=O)c1ccncc1 [isoniazid] + CO[C@H]1/C=C/O[C@@]2(C)Oc3c(C)c(O)c4c(O)c(c(/C=N/N5CCN(C6CCCC6)CC5)c(O)c4c3C2=O)NC(=O)/C(C)=C\C=C\[C@H](C)[C@H](O)[C@@H](C)[C@@H](O)[C@@H](C)[C@H](OC(C)=O)[C@@H]1C [rifapentine]
Settings | AUC25, [4] | Einf, [3] | GRinf, [1] | total FIC50, [2] | total FIC90, [5]
in vitro model: acidic pH 5.7, time point: constant (~7 days, model-specific) | 0.0986 | 0.958 | -0.468 | 0.854 | –
in vitro model: acidic pH 5.7, time point: terminal (~4-5 doublings, model-specific) | 0.0903 | 0.998 | -0.375 | 0.671 | 0.815
in vitro model: intracellular J774, time point: constant = terminal | – | 0.92 | -0.0955 | – | 0.118

Settings | AUC25, [4] | Einf, [3] | GRinf, [1] | total FIC50, [2] | total FIC90, [5]
in vitro model: butyrate, time point: constant (~7 days, model-specific) | 0.0748 | 0.93 | -0.0408 | 0.749 | -0.0255
in vitro model: butyrate, time point: terminal (~4-5 doublings, model-specific) | 0.0596 | 0.969 | -0.0505 | 0.65 | 0.51
in vitro model: cholesterol 0.05 mM, time point: constant (~7 days, model-specific) | 0.0859 | 0.689 | -0.113 | 0.606 | –
in vitro model: cholesterol 0.05 mM, time point: terminal (~4-5 doublings, model-specific) | 0.0803 | 0.905 | -0.101 | 0.573 | 0.195
in vitro model: cholesterol-high 0.2 mM, time point: constant (~7 days, model-specific) | 0.0656 | 0.954 | -0.564 | 0.787 | –
in vitro model: cholesterol-high 0.2 mM, time point: terminal (~4-5 doublings, model-specific) | 0.06 | 1 | -0.621 | 0.962 | 0.847
in vitro model: dormancy (butyrate + nitrate, low O2), time point: constant (~7 days, model-specific) | 0.0684 | 0.89 | 0.303 | 0.628 | 0.878
in vitro model: dormancy (butyrate + nitrate, low O2), time point: terminal (~4-5 doublings, model-specific) | 0.0424 | 0.986 | -0.0574 | 0.557 | 0.296
in vitro model: standard 7H9 glycerol, time point: constant = terminal | 0.0599 | 0.942 | -0.00945 | 0.229 | -0.235
in vitro model: valerate, time point: constant (~7 days, model-specific) | 0.0499 | 0.906 | -0.146 | 0.867 | –
in vitro model: valerate, time point: terminal (~4-5 doublings, model-specific) | 0.0394 | 0.958 | -0.122 | 1.05 | 1

COc1nc2ccc(Br)cc2cc1[C@@H](c1ccccc1)[C@@](O)(CCN(C)C)c1cccc2ccccc12 [bedaquiline] + NNC(=O)c1ccncc1 [isoniazid] + CO[C@H]1/C=C/O[C@@]2(C)Oc3c(C)c(O)c4c(O)c(c(/C=N/N5CCN(C)CC5)c(O)c4c3C2=O)NC(=O)/C(C)=C\C=C\[C@H](C)[C@H](O)[C@@H](C)[C@@H](O)[C@@H](C)[C@H](OC(C)=O)[C@@H]1C [rifampicin]
Settings | AUC25, [4] | Einf, [3] | GRinf, [1] | total FIC50, [2] | total FIC90, [5]
in vitro model: acidic pH 5.7, time point: constant (~7 days, model-specific) | 0.108 | 0.955 | -0.45 | 0.796 | –
in vitro model: acidic pH 5.7, time point: terminal (~4-5 doublings, model-specific) | 0.089 | 0.99 | -0.282 | 0.663 | 0.706
in vitro model: intracellular J774, time point: constant = terminal | – | 0.965 | -0.25 | – | 0.354

Settings | AUC25, [4] | Einf, [3] | GRinf, [1] | total FIC50, [2] | total FIC90, [5]
in vitro model: butyrate, time point: constant (~7 days, model-specific) | 0.102 | 0.946 | -0.0859 | 0.575 | 0.602
in vitro model: butyrate, time point: terminal (~4-5 doublings, model-specific) | 0.0879 | 0.977 | -0.052 | 0.331 | 0.56
in vitro model: cholesterol 0.05 mM, time point: constant (~7 days, model-specific) | 0.0808 | 0.689 | -0.157 | -0.117 | –
in vitro model: cholesterol 0.05 mM, time point: terminal (~4-5 doublings, model-specific) | 0.0785 | 0.918 | -0.164 | 0.536 | -0.254
in vitro model: cholesterol-high 0.2 mM, time point: constant (~7 days, model-specific) | 0.0768 | 0.978 | -0.43 | 0.606 | –
in vitro model: cholesterol-high 0.2 mM, time point: terminal (~4-5 doublings, model-specific) | 0.0551 | 0.998 | -0.606 | 0.868 | 0.598
in vitro model: dormancy (butyrate + nitrate, low O2), time point: constant (~7 days, model-specific) | 0.0706 | 0.908 | 0.222 | 0.635 | 0.621
in vitro model: dormancy (butyrate + nitrate, low O2), time point: terminal (~4-5 doublings, model-specific) | 0.0374 | 0.987 | -0.16 | 0.347 | 0.0703
in vitro model: standard 7H9 glycerol, time point: constant = terminal | 0.0722 | 0.939 | -0.0733 | 0.27 | 0.0151
in vitro model: valerate, time point: constant (~7 days, model-specific) | 0.0578 | 0.912 | -0.0907 | 1.13 | –
in vitro model: valerate, time point: terminal (~4-5 doublings, model-specific) | 0.0274 | 0.963 | -0.0942 | 1.33 | 1.01
